In patent US6465457B1 (priority 1991, dated 2002):
Where two headings read alike, the source gives them in different places.

Key:
Format in all cases: in vivo
[1] = system: Septoria nodorum (Wheat); assay: Foliar fungal disease test on plants: Septoria nodorum (Wheat); conditions: one or two days before inoculation
[2] = system: Phytophthora infestans (Tomatoes); conditions: one or two days before inoculation
[3] = system: Plasmopara viticola (Vines); assay: Foliar fungal disease test on plants: Plasmopara viticola (Vines); conditions: one or two days before inoculation
[4] = system: Thanatephorus cucumeries (Rice); assay: Foliar fungal disease test on plants: Thanatephorus cucumeries (Rice); conditions: one or two days before inoculation
[5] = system: Erysiphe graminis tritici (Wheat); assay: Foliar fungal disease test on plants: Erysiphe graminis tritici (Wheat); conditions: plants inoculated 24 hours before treatment
[6] = system: Puccinia recondita (Wheat); assay: Foliar fungal disease test on plants: Puccinia recondita (Wheat); conditions: plants inoculated with Puccinia recondita 48 hours before treatment
[7] = system: Venturia inaequalis (Apples); assay: Foliar fungal disease test on plants: Venturia inaequalis (Apples); conditions: one or two days before inoculation
[8] = system: Pyricularia oryzae (Rice); conditions: one or two days before inoculation
[9] = 100 ppm a.i. foliar spray or root drench (approx. 40 ppm in dry soil)
[10] = 100 ppm a.i. foliar spray or root drench

| SMILES | POCO (Percentage of Control) disease level, Septoria nodorum (Wheat) [1, 9] | POCO (Percentage of Control) disease level, Phytophthora infestans (Tomatoes) [2, 9] | POCO (Percentage of Control) disease level, Plasmopara viticola (Vines) [3, 9] | POCO (Percentage of Control) disease level, Thanatephorus cucumeries (Rice) [4, 9] | POCO (Percentage of Control) disease level, Erysiphe graminis tritici (Wheat) [5, 9] | POCO (Percentage of Control) disease level, Puccinia recondita (Wheat) [6, 10] | POCO (Percentage of Control) disease level, Venturia inaequalis (Apples) [7, 9] | POCO (Percentage of Control) disease level, Pyricularia oryzae (Rice) [8, 9] | POCO (Percentage of Control) disease level, Septoria nodorum (Wheat) ([1]; 10 ppm foliar spray only) | POCO (Percentage of Control) disease level, Phytophthora infestans (Tomatoes) ([2]; 10 ppm foliar spray only) | POCO (Percentage of Control) disease level, Plasmopara viticola (Vines) ([3]; 10 ppm foliar spray only) | POCO (Percentage of Control) disease level, Thanatephorus cucumeries (Rice) ([4]; 10 ppm foliar spray only) | POCO (Percentage of Control) disease level, Erysiphe graminis tritici (Wheat) ([5]; 10 ppm foliar spray only) | POCO (Percentage of Control) disease level, Puccinia recondita (Wheat) ([6]; 10 ppm foliar spray only) | POCO (Percentage of Control) disease level, Venturia inaequalis (Apples) ([7]; 10 ppm foliar spray only) | POCO (Percentage of Control) disease level, Pyricularia oryzae (Rice) ([8]; 10 ppm foliar spray only) |
| --- | --- | --- | --- | --- | --- | --- | --- | --- | --- | --- | --- | --- | --- | --- | --- | --- |
| C=CCN(C(=O)OCc1ccccc1C(=COC)C(=O)OC)c1c(F)cccc1F [23 (101)] | 10 (10 = 5.1-10% disease present) | 90 (90 and 94 = 60.1-100% disease present) | 0 (0 = 0% disease present) | 0 (0 = 0% disease present) | 0 (0 = 0% disease present) | 0+ (0 = 0% disease present) | 0 (0 = 0% disease present) | 0 (0 = 0% disease present) |  |  |  |  |  |  |  |  |
| COC=C(C(=O)OC)c1ccccc1COC(=O)N(C)c1cccc(SC)c1 [10 (2)] | 0 (0 = 0% disease present) | 20 (20 and 24 = 10.1-20% disease present) | 0 (0 = 0% disease present) | 20 (20 and 24 = 10.1-20% disease present) | 0 (0 = 0% disease present) | 0+ (0 = 0% disease present) | 0 (0 = 0% disease present) | 0 (0 = 0% disease present) |  |  |  |  |  |  |  |  |
| COC=C(C(=O)OC)c1ccccc1COC(=S)Nc1cccc(OC)c1 [7 (6)] |  |  |  |  |  |  |  |  | 90 (90 and 94 = 60.1-100% disease present) | 90 (90 and 94 = 60.1-100% disease present) | 60 (60 = 30.1-60% disease present) | 30 (30 = 20.1-30% disease present) | 0 (0 = 0% disease present) | 0+ (0 = 0% disease present) | 60 (60 = 30.1-60% disease present) | 10 (10 = 5.1-10% disease present) |
| CNC(=O)C(=NOC)c1ccccc1COC(=O)Nc1ccccc1 [5 (65)] |  |  |  |  |  |  |  |  | 90 (90 and 94 = 60.1-100% disease present) | 90 (90 and 94 = 60.1-100% disease present) | 90 (90 and 94 = 60.1-100% disease present) | 90 (90 and 94 = 60.1-100% disease present) | 30 (30 = 20.1-30% disease present) | 90+ (90 and 94 = 60.1-100% disease present) | 90 (90 and 94 = 60.1-100% disease present) | 30 (30 = 20.1-30% disease present) |
| CNC(=O)C(=NOC)c1ccccc1COC(=O)N(C)c1ccccc1 [5 (66)] | 5 (5 = 3.1-5% disease present) | 0 (0 = 0% disease present) | 0 (0 = 0% disease present) | 0 (0 = 0% disease present) | 0 (0 = 0% disease present) | 10+ (10 = 5.1-10% disease present) | 0 (0 = 0% disease present) | 0 (0 = 0% disease present) |  |  |  |  |  |  |  |  |
| COC=C(C(=O)OC)c1ccccc1COC(=O)N(C)c1ccccc1Cl [12 (2)] | 3 (3 = 1.1-3% disease present) | 5 (5 = 3.1-5% disease present) | 0 (0 = 0% disease present) | 0 (0 = 0% disease present) | 0 (0 = 0% disease present) | 30+ (30 = 20.1-30% disease present) | 0 (0 = 0% disease present) | 10 (10 = 5.1-10% disease present) |  |  |  |  |  |  |  |  |
